This is an account of results in ChEMBL document CHEMBL3039007, “Structure-based identification of OATP1B1/3 inhibitors” (Mol Pharmacol, 2013).

Data set [1] addresses T1, Solute carrier organic anion transporter family member 1B1 (Homo sapiens, UniProt Q9Y6L6).
T1 sequence (Q9Y6L6 whole entry): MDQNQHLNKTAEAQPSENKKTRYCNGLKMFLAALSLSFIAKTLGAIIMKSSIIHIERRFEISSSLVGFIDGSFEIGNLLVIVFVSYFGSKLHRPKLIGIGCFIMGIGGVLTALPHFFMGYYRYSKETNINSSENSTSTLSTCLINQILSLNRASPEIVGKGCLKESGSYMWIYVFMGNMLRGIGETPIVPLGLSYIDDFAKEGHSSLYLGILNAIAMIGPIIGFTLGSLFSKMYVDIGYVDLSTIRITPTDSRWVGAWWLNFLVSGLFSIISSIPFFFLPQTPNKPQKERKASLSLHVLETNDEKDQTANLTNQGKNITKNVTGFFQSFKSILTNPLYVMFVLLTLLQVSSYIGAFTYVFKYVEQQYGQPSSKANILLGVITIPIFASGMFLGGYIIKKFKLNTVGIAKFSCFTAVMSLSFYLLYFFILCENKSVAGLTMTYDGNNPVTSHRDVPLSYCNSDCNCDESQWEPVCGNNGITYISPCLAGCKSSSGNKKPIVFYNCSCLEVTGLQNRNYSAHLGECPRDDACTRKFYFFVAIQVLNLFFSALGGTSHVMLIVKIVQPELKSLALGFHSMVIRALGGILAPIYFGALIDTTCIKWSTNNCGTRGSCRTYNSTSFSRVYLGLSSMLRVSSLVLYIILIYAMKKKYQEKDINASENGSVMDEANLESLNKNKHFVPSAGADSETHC
Particulars: chinese hamster, cho, 10 µM.

The target in data set [2] is T2, Solute carrier organic anion transporter family member 1B3 (Homo sapiens, UniProt Q9NPD5).
T2 sequence (Q9NPD5 whole entry): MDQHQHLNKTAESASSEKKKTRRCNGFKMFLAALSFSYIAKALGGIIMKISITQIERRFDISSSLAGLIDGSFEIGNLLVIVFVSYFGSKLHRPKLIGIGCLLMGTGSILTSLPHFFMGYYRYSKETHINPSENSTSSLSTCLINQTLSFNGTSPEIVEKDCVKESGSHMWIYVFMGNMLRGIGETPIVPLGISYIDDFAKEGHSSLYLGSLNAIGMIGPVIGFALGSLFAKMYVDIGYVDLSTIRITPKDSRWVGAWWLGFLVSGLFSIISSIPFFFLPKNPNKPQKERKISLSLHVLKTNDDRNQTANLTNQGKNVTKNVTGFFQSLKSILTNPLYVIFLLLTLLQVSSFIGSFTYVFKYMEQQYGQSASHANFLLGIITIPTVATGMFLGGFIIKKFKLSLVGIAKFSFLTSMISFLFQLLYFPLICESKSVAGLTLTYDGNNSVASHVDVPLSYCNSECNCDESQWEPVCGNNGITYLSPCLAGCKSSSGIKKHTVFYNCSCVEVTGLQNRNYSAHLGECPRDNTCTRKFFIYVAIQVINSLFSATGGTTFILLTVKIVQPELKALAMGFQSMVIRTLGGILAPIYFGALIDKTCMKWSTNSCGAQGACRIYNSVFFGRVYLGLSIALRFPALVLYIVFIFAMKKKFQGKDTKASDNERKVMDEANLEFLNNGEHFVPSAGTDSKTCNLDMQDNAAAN
Particulars: chinese hamster, cho, 10 µM.

Molecules are shown by their SMILES.

On to `CC(C)NCC(O)c1ccc2ccccc2c1.Cl` (centres undefined), for which the residual activity in data set [1] is given as 83.88%; in data set [2] it was 87.91%.

Take `C[C@H]1C[C@@H]2[C@H]([C@@H](O)C[C@@]3(C)[C@H]2CC[C@]3(O)C(=O)CO)[C@@]2(C)C=CC(=O)C=C12` [METHYLPREDNISOLONE]: the residual activity is 79.56% in data set [1] and 93.74% in data set [2].

Regarding `COC(=O)Nc1nc2ccc([S+]([O-])c3ccccc3)cc2[nH]1` (centres undefined) [OXFENDAZOLE], the residual activity was 95.15% in data set [1] and 114.2% in data set [2].

Consider `C=CCc1ccccc1OCC(O)CNC(C)C` (centres undefined) [ALPRENOLOL], for which the residual activity in data set [1] is on record as 89.01%; in data set [2], 120.6%.

With `O=C1C(O)=C([C@H]2CC[C@H](c3ccc(Cl)cc3)CC2)C(=O)c2ccccc21` [ATOVAQUONE], the residual activity in data set [1] worked out at 89.04%; in data set [2] it was 81.94%.

With `CCn1cc(C(=O)O)c(=O)c2cc(F)c(N3CCN(C)CC3)cc21.CS(=O)(=O)O` [PEFLOXACIN MESYLATE], the values for the residual activity in data set [1] and in data set [2] were 123.1% and 95.74%, respectively.

On to `CC(=O)Oc1cccc2c1C(=O)c1c(OC(C)=O)cc(C(=O)O)cc1C2=O` [DIACEREIN], for which the figures for the residual activity in data set [1] and in data set [2] were 72.58% and 86.69%, respectively.

In the case of `Oc1cc(O)c2c(c1)O[C@H](c1cc(O)c(O)c(O)c1)[C@H](O)C2` [EPIGALLOCATECHIN], the residual activity turned out to be 101.7% in data set [1] and 96.72% in data set [2].

On to `C[C@]12CCC(=O)C=C1C=C[C@@H]1[C@@H]2CC[C@@]2(C)[C@H]1CC[C@@]21CCC(=O)O1` [CANRENONE], for which the values for the residual activity in data set [1] and in data set [2] were 32.01% and 78.65%, respectively.

As for `CCOC(=O)C1=C[C@]2(CC)CCCN3CCc4c(n1c1ccccc41)[C@@H]32` [VINPOCETINE], the residual activity in data set [1] was 167.7%; in data set [2], 109.4%.

With `CCC(N)C(O)c1ccc(O)c(O)c1.Cl` (centres undefined) [ETHYLNOREPINEPHRINE HYDROCHLORIDE], the figures for the residual activity in data set [1] and in data set [2] were 130.8% and 104.2%, respectively.

Regarding `CC[C@@H](CO)NC(=O)[C@@H]1C=C2c3cccc4[nH]cc(c34)C[C@H]2N(C)C1.O=C(O)/C=C\C(=O)O` [METHYLERGONOVINE MALEATE], the residual activity in data set [1] is recorded as 77.53%; in data set [2] it was 108.9%.

`CC(=O)c1cc2c(cc1O)OC(C)(C)C=C2`: the residual activity in data set [1] stood at 84.54%; in data set [2], 88.13%.

As to `CC(=O)[C@H]1CC[C@H]2[C@@H]3CC[C@@H]4C[C@H](O)CC[C@]4(C)[C@H]3C[C@H](O)[C@]12C`, the results for the residual activity in data set [1] and in data set [2] were 97.69% and 117.8%, respectively.

Take `CC12CCC3C(CC3(C)C)C(C)(CCC1=O)O2` (centres undefined) [3,7-EPOXYCARYOPHYLLAN-6-ONE]: the figures for the residual activity in data set [1] and in data set [2] were 72.4% and 93.4%, respectively.

Consider `CN(C)C(=S)SSC(=S)N(C)C` [THIRAM], for which the figures for the residual activity in data set [1] and in data set [2] were 104.4% and 99.01%, respectively.

Take `C=C(C)[C@@H]1CC[C@]2(C(=O)O)CC[C@]3(C)[C@H](CC[C@@H]4[C@@]5(C)CC[C@H](O)C(C)(C)[C@@H]5CC[C@]43C)[C@@H]12` [BETULINIC ACID]: the residual activity in data set [1] is 25.94%; in data set [2] it was 38.62%.

Take `COC(=O)[C@]1(C)CC[C@]2(C)CC[C@]3(C)C4=CCc5c(cc(OC(C)=O)c(OC(C)=O)c5C)[C@]4(C)CC[C@@]3(C)[C@@H]2C1` [PRISTIMEROL DIACETATE]: the residual activity is 94.14% in data set [1] and 83.45% in data set [2].

`CC1CCC(NC(=O)N(CCCl)N=O)CC1` (centres undefined) [SEMUSTINE]: the figures for the residual activity in data set [1] and in data set [2] were 101.5% and 100.5%, respectively.

With `Cl.O=C1NCC2(CCN(CCc3ccccc3)CC2)O1` [FENSPIRIDE HYDROCHLORIDE], the figures for the residual activity in data set [1] and in data set [2] were 107.4% and 93.02%, respectively.

Regarding `COc1ccc(-c2oc3c(CC=C(C)C)c(O[C@@H]4O[C@H](CO)[C@@H](O)[C@H](O)[C@H]4O)cc(O)c3c(=O)c2O[C@@H]2O[C@@H](C)[C@H](O)[C@@H](O)[C@H]2O)cc1` [ICARIIN], the figures for the residual activity in data set [1] and in data set [2] were 212.5% and 126.8%, respectively.

For the molecule `CCC[C@H]1CCCCN1` [CONIINE], the residual activity in data set [1] stood at 105.3%; in data set [2], 100.1%.

Consider `CN[C@@H]1[C@H](O[C@H]2[C@H](O[C@H]3[C@H](O)[C@@H](O)[C@H](N=C(N)N)[C@@H](O)[C@@H]3N=C(N)N)O[C@@H](C)[C@]2(O)C=O)O[C@@H](CO)[C@H](O)[C@H]1O.CN[C@@H]1[C@H](O[C@H]2[C@H](O[C@H]3[C@H](O)[C@@H](O)[C@H](N=C(N)N)[C@@H](O)[C@@H]3N=C(N)N)O[C@@H](C)[C@]2(O)C=O)O[C@@H](CO)[C@H](O)[C@H]1O.O=S(=O)(O)O.O=S(=O)(O)O.O=S(=O)(O)O` [STREPTOMYCIN SULFATE], for which the residual activity in data set [1] amounted to 87.18%; in data set [2], 109.2%.

Turning to `OCC(O)Cc1ccc2c(c1)OCO2` (centres undefined) [SAFROLGLYCOL], the values for the residual activity in data set [1] and in data set [2] were 82.94% and 83.74%, respectively.

Consider `N=C(N)NCCC[C@@H](NC(=O)[C@@H](N)Cc1ccc(O)cc1)C(=O)O` [d[-Arg-2]KYOTORPHAN ACETATE], for which the residual activity in data set [1] was determined as 114.8%; in data set [2], 98.23%.

For the molecule `C[C@@H]1C[C@H]2[C@@H]3CCC4=CC(=O)C=C[C@]4(C)[C@@]3(Cl)[C@@H](O)C[C@]2(C)[C@@]1(OC(=O)c1ccco1)C(=O)CCl` [MOMETASONE FUROATE], the residual activity in data set [1] was found to be 34.01%; in data set [2], 25.64%.

For `NCC[C@H](O)C(=O)N[C@@H]1C[C@H](N)[C@@H](O[C@H]2O[C@H](CN)[C@@H](O)[C@H](O)[C@H]2O)[C@H](O)[C@H]1O[C@H]1O[C@H](CO)[C@@H](O)[C@H](N)[C@H]1O.O=S(=O)(O)O`, the figures for the residual activity in data set [1] and in data set [2] were 72.99% and 92.21%, respectively.

For the molecule `COc1ccc2c(c1)c(CC(=O)O)c(C)n2C(=O)c1ccc(Cl)cc1` [INDOMETHACIN], the residual activity in data set [1] was found to be 97.38%; in data set [2], 50.32%.

`COc1ccc(OC)c(C(O)CNC(=O)CN)c1.Cl` (centres undefined) [MIDODRINE HYDROCHLORIDE]: the residual activity in data set [1] stood at 101.7%; in data set [2], 88.99%.

`CCOC(=O)c1c(C)cc(O)c(C)c1O` [METHYLORSELLINIC ACID, ETHYL ESTER]: the residual activity in data set [1] is 76.13%; in data set [2], 105.6%.

In the case of `S=P(N1CC1)(N1CC1)N1CC1` [THIOTEPA], the figures for the residual activity in data set [1] and in data set [2] were 67.53% and 70.43%, respectively.

`C=C[C@](C)(O)CCC=C(C)C` [LINALOOL (+)]: the values for the residual activity in data set [1] and in data set [2] were 102.5% and 117.7%, respectively.

On to `C[C@H]1C(=O)O[C@@H]2CCN3CC=C(COC(=O)[C@](C)(O)[C@]1(C)O)[C@H]23` [MONOCROTALINE], for which the residual activity amounted to 100.7% in data set [1] and 94.85% in data set [2].

As for `CC(C)[N+](C)(CCOC(=O)C1c2ccccc2Oc2ccccc21)C(C)C.[Br-]` [PROPANTHELINE BROMIDE], the residual activity in data set [1] and in data set [2] was 110.4% each time.

On to `CC(C)[C@@H](C)/C=C/[C@@H](C)[C@H]1CC[C@H]2C3=CC=C4C[C@@H](O)CC[C@]4(C)[C@H]3CC[C@]12C` [ERGOSTEROL], for which the residual activity was found to be 31.68% in data set [1] and 52.34% in data set [2].

Take `Cc1cn([C@H]2C[C@H](N=[N+]=[N-])[C@@H](CO)O2)c(=O)[nH]c1=O` [ZIDOVUDINE]: the residual activity in data set [1] is given as 134%; in data set [2], 95.75%.

For `Nc1ccc(C(=O)[O-])c(O)c1.O.O.[Na+]` [AMINOSALICYLATE SODIUM], the residual activity amounted to 75.75% in data set [1] and 88.86% in data set [2].

The term residual activity denotes the signal under treatment as a percentage of the control signal.
